# Laboratory results taken from ChEMBL document CHEMBL4725275, “Structural basis for the stabilization of amyloidogenic immunoglobulin light chains by hydantoins” (Bioorg Med Chem Lett, 2020).
# Active and inactive are the calls of the source. The rule behind the calls is not given here.
# Legend:
# [1] = Solubility of the compound; type: physicochemical
# [2] = species on record: Homo sapiens; assay: Kinetic stabilization of AL patient derived recombinant full length IGLV6-57 C214S mutant assessed as induction of dimer formation at 100 uM by sedimentation velocity analytical ultracentrifugation
# [3] = molecular target: Immunoglobulin lambda variable 6-57 (Homo sapiens) (UniProt P01721); assay: Binding affinity to AL patient derived full length IGLV6-57 assessed as protection against proteinase K-mediated digestion by measuring fraction remaining at 100 uM measured after 2 hrs by analytical size-exclusion chromatography
# Chain of Immunoglobulin lambda variable 6-57 (Homo sapiens) (P01721 whole entry): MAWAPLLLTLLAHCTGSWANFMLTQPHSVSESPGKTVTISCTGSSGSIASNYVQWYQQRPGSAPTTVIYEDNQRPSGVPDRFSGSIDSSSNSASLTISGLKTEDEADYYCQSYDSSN
solubility [1],Activity [2],Activity [3],SMILES
100 µM,Active,,CC1CCCCC12NC(=O)N(CC(=O)Nc1ccc(C(F)(F)F)cc1)C2=O (stereo not given)
,Active,,CCN(CC)c1ccc2c(C)cc(=O)oc2c1
,,Active,CC(C)C[C@@H]1NC(=O)N(CC(=O)Nc2ccc(C(F)(F)F)cc2)C1=O
,,Active,CC(C)C[C@H]1NC(=O)N(CC(=O)Nc2ccc(C(F)(F)F)cc2)C1=O
